Where two headings read alike, the source gives them in different places.
How the values were obtained:
CCRF-CEM cells = experiment: Cellular senescence assay (SA-β-gal); assay type: cell-based, human; conditions: 5 μM, within 48 hours, maintained to 96 hour, FIG. 15A
Description: (§1) Analysis of senescence-associated β-galactosidase (SA-β-gal) activity was performed using the 96-Well Cellular Senescence Assay Kit (Cell Biolabs, San Diego, Calif.) as per the manufacturer's protocol. In brief, cells were washed with PBS, lysed with cell lysis buffer, and incubated at 37° C. with SA-β-gal substrate for 1 hour. A quantitative Cellular Senescence Assay Kit (SA-β-gal, Fluorometric) (Cell Biolabs, San Diego, Calif.) was used for more quantitative measurement of SA-β-gal activity by flow cytometry. Briefly, control and treated CCRF-CEM cells were incubated with 1× cell pretreatment solution in culture medium for 2 hrs, and the fluorogenic substrate was then directly added into the culture. After 4 hrs, the cells were washed and analyzed by flow cytometry.

patient T-ALL samples = experiment: SA-β-gal activity in patient T-ALL samples from treated NSG mice; assay type: in vivo; conditions: p<0.05, FIG. 15C
Description: as §1
CCRF-CEM (2×10^6) cells were injected intravenously (i.v.) into female NOD.Cg-Prkdc^scid Il2rg^tm1WJl/SzJ IL2RG (NSG) mice (Jackson Laboratories, Bar Harbor, Me.). […] In some experiments mice were injected i.v. with TLR1-TLR2 ligand (2.5 μg) two days after injecting cells. […] The numbers of T-ALL cells in the bone marrow, spleen, liver, and in circulation were determined by staining cells with anti-human CD7 and/or CD5. […]

A375 melanoma cells = experiment: Western blot of cleaved PARP and caspase-3; assay type: cell-based, human; conditions: for levels of cleaved PARP and caspase-3: 48 hrs, FIG. 8D
Description: FIG. 8. […] (A) A375 and Malme-3M melanoma cells were cultured with or without 2.5 μM of IRAK-1,-4 and in the presence varying concentrations of vinblastine, cisplatin or 5′ Fluorouracil. Forty-eight hours later apoptosis was evaluated by staining cells with annexin-V and propidium iodide and analyzed by flow cytometry. (B) A375 cells were transfected via electroporation with siRNA-IRAK-1,-4. IRAK-1 protein levels were examined by Western blotting. […], A375-psiRNA-hIRAK-1, A375-psiRNA-hIRAK-4, or cells expressing both psiRNA-hIRAK-1 and -4 were cultured in the presence of vinblastine (100 nmol/L) for 48 hours and apoptosis was examined by flow cytometry. (C) A375 melanoma cells were cultured in the presence of vehicle alone (DMSO) or various concentrations of IRAK-1,-4. Forty-eight hours later cell lysates were used to analyze the expression of levels of cleaved PARP or caspase-3 by Western blots. (D) A375 melanoma cells were cultured with or without 2.5 μM of IRAK.-1,-4 and in the presence or absence of vinblastine for 48 hrs. PARP and caspase-3 levels were determined by Western blot.
Total cell extracts were prepared from melanoma cells. […] Melanoma tissue arrays were purchased from US Biomax, Inc (Rockville, Md.). For immunohistochemical staining samples were stained with mouse monoclonal anti-human phosphor-IRAK.-4 antibody (Abnova; dilution, 3.5 μg/ml) or normal mouse serum. Tissue histology sections (5-μm-thick) were deparaffinized, hydrated, heated in boiling 10 mmol/L sodium citrate (pH 6.0), for antigen retrieval, for 30 min and washed in Tris buffer. Peroxide blocking was done with 3% […] in methanol at room temperature for 15 min, followed by 10% fetal bovine serum in TBS-t for 30 min at room temperature. Primary antibody incubation was done overnight at 4° C. Secondary antibody incubation with horse anti-mouse (1:200; Vector Laboratories, Burlingame, Calif.) was done for 1 hr, followed by application of diaminobenzidine chromogen for 5 min. The slides were then counterstained with hematoxylin and topped with a coverslip. IHC specimens were analyzed using “quick score” system in which the intensity of the immunohistochemical reaction was scored by multiplying the intensity 1 (weak), 2 (moderate), and 3 (strong) and the proportion of cells staining positively 0 (<10%), 1 (10-25%), 2 (26-50%), 3 (51-75%) or 4 (>75%).

[1] = tested on: panel of 27 other kinases; conditions: supplier (EMD Millipore) description, cited from earlier work

Compound: O=C(Nc1nc2ccccc2n1CCN1CCOCC1)c1cccc([N+](=O)[O-])c1 [IRAK-1,-4 inhibitor]
- increase of SA-β-gal activity (CCRF-CEM cells): three-fold
- SA-β-gal activity (patient T-ALL samples): increased SA-β-gal activity
- levels of cleaved PARP and caspase-3 (A375 melanoma cells; 2.5 μmol/L IRAK-1,-4 inhibitor combined with vinblastine): increased the levels
- active caspase-3 (A375 melanoma cells; 10 μM, 48 h, FIG. 8C): detected
- cleaved PARP (A375 melanoma cells; concentration-dependent, 48 h, FIG. 8C): Enhanced accumulation
- levels of cleaved PARP and caspase-3 (A375 melanoma cells; single agent alone): little effect
- activity against a panel of 27 other kinases [1]: little to no activity
- activity against a panel of 27 other kinases ([1]; listed as IRAK.-1,-4 inhibitor): little activity
